# Experimental data as given in ChEMBL document CHEMBL1201862, “PubChem BioAssay data set” (2004).
# Where “and” joins values, the source holds several entries; their conditions need not be identical. Equal values may be shown once.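 Step 1: Grow cells in 96-well plates. Step 2: Expose to compound for 48 hours at 5 concentrations. Step 3: Interpolate endpoints linearly; if unreached, use highest concentration. Abbreviation: GI50, concentration required for 50% inhibition of growth.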 Calls of active or inactive are those of the source. No stated cut-off is given here; in the data, active = GI50 up to about 1.1 µM and inactive = higher.
# Columns and labels:
# Experiment in all cases: growth of human tumour cells (NCI), 48 h
# OVCAR-4 = test system: OVCAR-4
# SK-MEL-5 = test system: SK-MEL-5
# CAKI-1 = test system: CAKI-1
# OVCAR-8 = test system: OVCAR-8
# SK-MEL-2 = test system: SK-MEL-2
# K562 = test system: K562
# SF-295 = test system: SF-295
# 786-0 = test system: 786-0
# EKVX = test system: EKVX
# UO-31 = test system: UO-31
# SN12C = test system: SN12C
# HOP-92 = test system: HOP-92
# SNB-75 = test system: SNB-75
# TK-10 = test system: TK-10
# Hs-578T = test system: Hs-578T
# SF-539 = test system: SF-539
# LOX IMVI = test system: LOX IMVI
# HT-29 = test system: HT-29
# NCI-H522 = test system: NCI-H522
# Malme-3M = test system: Malme-3M
Compound,GI50 (OVCAR-4),GI50 (SK-MEL-5),GI50 (CAKI-1),GI50 (OVCAR-8),GI50 (SK-MEL-2),GI50 (K562),GI50 (SF-295),GI50 (786-0),GI50 (EKVX),GI50 (UO-31),GI50 (SN12C),GI50 (HOP-92),GI50 (SNB-75),GI50 (TK-10),GI50 (Hs-578T),GI50 (SF-539),GI50 (LOX IMVI),GI50 (HT-29),GI50 (NCI-H522),GI50 (Malme-3M)
N#C/N=C1/c2ccccc2/C(=N/C#N)c2cc(CO)ccc21,48.1 µM (inactive),27 µM (inactive),25.3 µM (inactive),37.8 µM (inactive),61.2 µM (inactive),23.3 µM (inactive),32.6 µM (inactive),36.8 µM (inactive),27.7 µM (inactive),30.2 µM (inactive),24.8 µM (inactive),24.8 µM (inactive),24.2 µM (inactive),27.3 µM (inactive),69.2 µM (inactive),51.2 µM (inactive),30.5 µM (inactive),26.7 µM (inactive),39 µM (inactive),–
Oc1cccc2ccc(Br)nc12,> 100 µM (inactive),> 100 µM (inactive),> 100 µM (inactive),> 100 µM (inactive),–,> 100 µM (inactive),> 100 µM (inactive),> 100 µM (inactive),> 100 µM (inactive),> 100 µM (inactive),> 100 µM (inactive),> 100 µM (inactive),> 100 µM (inactive),> 100 µM (inactive),> 100 µM (inactive),> 100 µM (inactive),> 100 µM (inactive),> 100 µM (inactive),> 100 µM (inactive),> 100 µM (inactive)
CNc1ccc(Cl)cc1C(=O)N1CCC[C@H]1CO,> 100 µM (inactive),–,> 100 µM (inactive),> 100 µM (inactive),> 100 µM (inactive),> 100 µM (inactive),> 100 µM (inactive),> 100 µM (inactive),> 100 µM (inactive),> 100 µM (inactive),> 100 µM (inactive),> 58.6 µM (inactive),99.3 µM (inactive),> 100 µM (inactive),> 100 µM (inactive),> 100 µM (inactive),> 100 µM (inactive),> 100 µM (inactive),> 100 µM (inactive),> 100 µM (inactive)
CC1(C)OP(=O)(O)C=C1Sc1ccc([N+](=O)[O-])cc1[N+](=O)[O-],> 100 µM (inactive),> 100 µM (inactive),> 100 µM (inactive),> 100 µM (inactive),> 100 µM (inactive),> 100 µM (inactive),> 100 µM (inactive),> 100 µM (inactive),> 100 µM (inactive),–,> 100 µM (inactive),> 100 µM (inactive),> 100 µM (inactive),> 100 µM (inactive),> 100 µM (inactive),> 100 µM (inactive),> 100 µM (inactive),45.7 µM (inactive),> 100 µM (inactive),> 100 µM (inactive)
COc1ccc2c(c1)C(=O)CCc1cc(OC)c(OC)c(OC)c1-2,0.0582 µM (active),0.0521 µM (active),0.127 µM (active),0.0513 µM (active),0.0818 µM (active),0.0366 µM (active),0.0384 µM (active),0.0542 µM (active),0.045 µM (active),0.0631 µM (active),0.0649 µM (active),0.135 µM (active),–,15.1 µM (inactive),0.0243 µM (active),< 0.01 µM (active),0.0966 µM (active),0.0374 µM (active),< 0.01 µM (active),0.0304 µM (active)
CC(C)[C@@H]1ON1C(C)c1ccccc1 (some centres undefined),> 100 µM (inactive),> 100 µM (inactive),17.1 µM (inactive),> 100 µM (inactive),–,> 100 µM (inactive),> 100 µM (inactive),> 100 µM (inactive),> 100 µM (inactive),> 100 µM (inactive),> 100 µM (inactive),> 100 µM (inactive),> 100 µM (inactive),> 100 µM (inactive),> 100 µM (inactive),> 100 µM (inactive),> 100 µM (inactive),> 100 µM (inactive),> 100 µM (inactive),> 100 µM (inactive)
O=c1[nH]c(=O)n(C2OC(CO)C(O)C2O)cc1OCCc1ccccc1 (centres undefined),> 100 µM (inactive),> 100 µM (inactive),> 100 µM (inactive),> 100 µM (inactive),> 100 µM (inactive),–,> 100 µM (inactive),> 100 µM (inactive),> 100 µM (inactive),–,> 100 µM (inactive),> 100 µM (inactive),–,> 100 µM (inactive),> 100 µM (inactive),> 100 µM (inactive),> 100 µM (inactive),> 100 µM (inactive),> 100 µM (inactive),> 100 µM (inactive)
CCN(CC)C(=S)SC [METHYLDIETHYL CARBAMODITHIOATE],–,> 100 µM (inactive),–,> 100 µM (inactive),> 100 µM (inactive),> 100 µM (inactive),> 100 µM (inactive),> 100 µM (inactive),> 100 µM (inactive),–,> 100 µM (inactive),> 100 µM (inactive),> 100 µM (inactive),> 100 µM (inactive),> 100 µM (inactive),> 100 µM (inactive),> 100 µM (inactive),> 100 µM (inactive),> 100 µM (inactive),> 100 µM (inactive)
CCOC(=O)C1=C(C)N(Cc2ccc(Cl)cc2Cl)C2(O)C=CC(=O)C3C(=O)N(c4ccccc4)C(=O)C132 (centres undefined),1.51 µM (inactive),2.09 µM (inactive),3.02 µM (inactive),2.02 µM (inactive),1.77 µM (inactive),0.659 µM (active),2.88 µM (inactive),3.24 µM (inactive),1.89 µM (inactive),2.07 µM (inactive),1.91 µM (inactive),1.78 µM (inactive),–,2.72 µM (inactive),3.37 µM (inactive),2.23 µM (inactive),0.682 µM (active),1.69 µM (inactive),1.72 µM (inactive),2.09 µM (inactive)
COc1ccc(-n2c(N)c(C#N)[nH]c2=O)cc1,> 10 µM (inactive),> 10 µM (inactive),–,> 10 µM (inactive),> 10 µM (inactive),> 10 µM (inactive),2.77 µM (inactive),> 10 µM (inactive),> 10 µM (inactive),> 10 µM (inactive),> 10 µM (inactive),> 10 µM (inactive),> 10 µM (inactive),> 10 µM (inactive),> 10 µM (inactive),> 10 µM (inactive),1.79 µM (inactive),> 10 µM (inactive),> 10 µM (inactive),> 10 µM (inactive)
CC(=O)Nc1ccc2cc(C)c(O)nc2n1,> 100 µM (inactive),> 100 µM (inactive),> 100 µM (inactive),> 100 µM (inactive),> 100 µM (inactive),> 100 µM (inactive),> 100 µM (inactive),52.1 µM (inactive),> 100 µM (inactive),> 100 µM (inactive),> 100 µM (inactive),54.2 µM (inactive),43.7 µM (inactive),> 100 µM (inactive),85.7 µM (inactive),> 100 µM (inactive),–,> 100 µM (inactive),> 100 µM (inactive),> 100 µM (inactive)
CC(=O)O[C@H]1CC2C(C3CC[C@H](C(C)CCC(N)=O)[C@]31C)[C@H](OC(C)=O)C[C@@H]1CC3(CC[C@]21C)OOC1(CCC(C)CC1)OO3 (some centres undefined),1.32 µM (inactive) and 1.48 µM (inactive),1.74 µM (inactive) and 2.96 µM (inactive),2.29 µM (inactive) and 1.71 µM (inactive),1.71 µM (inactive) and 1.47 µM (inactive),1.91 µM (inactive),2.48 µM (inactive) and 3.99 µM (inactive),2.99 µM (inactive) and 2 µM (inactive),1.86 µM (inactive) and 1.77 µM (inactive),–,1.56 µM (inactive),1.67 µM (inactive) and 2.27 µM (inactive),2.79 µM (inactive) and 1.65 µM (inactive),–,1.95 µM (inactive) and 2.72 µM (inactive),2.07 µM (inactive) and 2.38 µM (inactive),1.9 µM (inactive) and 2.7 µM (inactive),1.83 µM (inactive) and 1.92 µM (inactive),2.51 µM (inactive) and 1.54 µM (inactive),1.4 µM (inactive) and 1.71 µM (inactive),2.12 µM (inactive) and 2.53 µM (inactive)
N#Cc1nc(-c2ccco2)oc1N,> 10 µM (inactive),> 10 µM (inactive),> 10 µM (inactive),> 10 µM (inactive),–,> 10 µM (inactive),> 10 µM (inactive),> 10 µM (inactive),> 10 µM (inactive),> 10 µM (inactive),–,> 10 µM (inactive),> 10 µM (inactive),> 10 µM (inactive),> 10 µM (inactive),> 10 µM (inactive),> 10 µM (inactive),> 10 µM (inactive),> 10 µM (inactive),> 10 µM (inactive)
COc1cc(/C=C2/SC(c3ccccc3)N(c3ccccc3)C2=O)cc(OC)c1OC (centres undefined),69.5 µM (inactive),12.1 µM (inactive),> 100 µM (inactive),76.4 µM (inactive),> 100 µM (inactive),8.97 µM (inactive),27 µM (inactive),> 100 µM (inactive),51.6 µM (inactive),29.5 µM (inactive),> 100 µM (inactive),> 100 µM (inactive),–,> 100 µM (inactive),> 100 µM (inactive),> 100 µM (inactive),69.5 µM (inactive),–,21.7 µM (inactive),80.2 µM (inactive)
